# Source: patent US9376425B2, “Heterocyclic compounds as MDM2 inhibitors for the treatment of cancer” (AMGEN INC., priority 2011, dated 2016)
# Target: T1, human MDM2 (GST-hMDM2 1-188), interaction with biotinylated-p53 (1-83) (Homo sapiens, UniProt Q00987)
# T1 construct: Amino acid residues 1-188 of human MDM2 were expressed; made in house; host or cells: Escherichia coli
# Assay: improved HTRF assay (HTRF2 assay), inhibition of HDM2-p53 interaction
# Type: binding
# Conditions: 0.2 nM GST-hMDM2, 0.5 nM biotinylated-p53, 100 mM KF
# In short: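 Time-resolved fluorescence (HTRF) read after >4 h equilibration with SA-XLent/anti-GST cryptate/KF detection reagents. Reaction: compound plus GST-hMDM2 for 20 min at room temperature, then E. coli-expressed biotinylated p53 residues 1-83 for 60 min, 2% DMSO final. Inhibition expressed versus nutlin-3.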
# T1 sequence (Q00987 1-188): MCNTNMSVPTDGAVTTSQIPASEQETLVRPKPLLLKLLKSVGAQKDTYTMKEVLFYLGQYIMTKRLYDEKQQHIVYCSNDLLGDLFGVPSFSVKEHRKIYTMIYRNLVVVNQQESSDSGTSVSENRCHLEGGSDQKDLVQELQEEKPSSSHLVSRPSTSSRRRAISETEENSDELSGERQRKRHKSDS
row,SMILES,IC50
1,"O=C(O)C[C@H]1O[C@H](c2cccc(Cl)c2)[C@@H](c2ccc(Cl)cc2)N([C@H](CS(=O)(=O)c2ccncc2)C2CC2)C1=O (single isomer, unassigned) [Example 287, 2-((2R,5R,6R)-6-(3-Chlorophenyl)-5-(4-chlorophenyl)-4-((S)-1-cyclopropyl-2-(pyridin-4-ylsulfonyl)ethyl)-3-oxomorpholin-2-yl)acetic acid or 2-((2S,5R,6R)-6-(3-chlorophenyl)-5-(4-chlorophenyl)-4-((S)-1-cyclopropyl-2-(pyridin-4-ylsulfonyl)ethyl)-3-oxomorpholin-2-yl)acetic acid]",5 nM
2,"CC(C)(O)CS(=O)(=O)C[C@H](C1CC1)N1C(=O)[C@@H](CC(=O)O)O[C@H](c2cccc(Cl)c2)[C@H]1c1ccc(Cl)cc1 (single isomer, unassigned) [Example 288, 2-((2R,5R,6R)-6-(3-Chlorophenyl)-5-(4-chlorophenyl)-4-((S)-1-cyclopropyl-2-((2-hydroxy-2-methylpropyl)sulfonyl)ethyl)-3-oxomorpholin-2-yl)acetic acid or 2-((2S,5R,6R)-6-(3-chlorophenyl)-5-(4-chlorophenyl)-4-((S)-1-cyclopropyl-2-((2-hydroxy-2-methylpropyl)sulfonyl)ethyl)-3-oxomorpholin-2-yl)acetic acid]",< 1 nM
3,"CC(C)(O)CS(=O)(=O)C[C@H](C1CC1)N1C(=O)[C@@H](CC(=O)O)O[C@H](c2cccc(Cl)c2)[C@H]1c1ccc(Cl)cc1 (single isomer, unassigned) [Example 289, 2-((2R,5R,6R)-6-(3-Chlorophenyl)-5-(4-chlorophenyl)-4-((S)-1-cyclopropyl-2-((2-hydroxy-2-methylpropyl)sulfonyl)ethyl)-3-oxomorpholin-2-yl)acetic acid or 2-((2S,5R,6R)-6-(3-chlorophenyl)-5-(4-chlorophenyl)-4-((S)-1-cyclopropyl-2-((2-hydroxy-2-methylpropyl)sulfonyl)ethyl)-3-oxomorpholin-2-yl)acetic acid]",2 nM
4,"CC(C)(C#N)S(=O)(=O)C[C@H](C1CC1)N1C(=O)[C@@H](CC(=O)O)O[C@H](c2cccc(Cl)c2)[C@H]1c1ccc(Cl)cc1 (single isomer, unassigned) [Example 290, 2-((2R,5R,6R)-6-(3-Chlorophenyl)-5-(4-chlorophenyl)-4-((S)-2-((2-cyanopropan-2-yl)sulfonyl)-1-cyclopropylethyl)-3-oxomorpholin-2-yl)acetic acid or 2-((2S,5R,6R)-6-(3-chlorophenyl)-5-(4-chlorophenyl)-4-((S)-2-((2-cyanopropan-2-yl)sulfonyl)-1-cyclopropylethyl)-3-oxomorpholin-2-yl)acetic acid]",< 1 nM
5,"CC(C)(C#N)S(=O)(=O)C[C@H](C1CC1)N1C(=O)[C@@H](CC(=O)O)O[C@H](c2cccc(Cl)c2)[C@H]1c1ccc(Cl)cc1 (single isomer, unassigned) [Example 291, 2-((2R,5R,6R)-6-(3-Chlorophenyl)-5-(4-chlorophenyl)-4-((S)-2-((2-cyanopropan-2-yl)sulfonyl)-1-cyclopropylethyl)-3-oxomorpholin-2-yl)acetic acid or 2-((2S,5R,6R)-6-(3-chlorophenyl)-5-(4-chlorophenyl)-4-((S)-2-((2-cyanopropan-2-yl)sulfonyl)-1-cyclopropylethyl)-3-oxomorpholin-2-yl)acetic acid]",< 1 nM
6,"CC(C)(C)NS(=O)(=O)C[C@H](C1CC1)N1C(=O)[C@@H](CC(=O)O)O[C@H](c2cccc(Cl)c2)[C@H]1c1ccc(Cl)cc1 (single isomer, unassigned) [Example 292, 2-((2R,5R,6R)-4-((S)-2-(N-(tert-Butyl)sulfamoyl)-1-cyclopropylethyl)-6-(3-chlorophenyl)-5-(4-chlorophenyl)-3-oxomorpholin-2-yl)acetic acid or 2-((2S,5R,6R)-4-((S)-2-(N-(tert-butyl)sulfamoyl)-1-cyclopropylethyl)-6-(3-chlorophenyl)-5-(4-chlorophenyl)-3-oxomorpholin-2-yl)acetic acid]",< 1 nM
